These molecules were tested against T1, human mPGES-1 (Homo sapiens, UniProt O14684) (assay: Test for mPGES-1 inhibitory activity (microsomal enzyme, PGE2 EIA)). Settings: microsomes of COS-1 cells transfected with human mPGES-1 cDNA; PGH2 1 μM; 4° C., 4 minutes; PGE2 by EIA; read-out: h mPGES1 IC50.
T1 construct: made in house; host or cells: COS-1 cells (transient transfection; microsomal fraction used as enzyme)
T1 sequence (O14684 1-152): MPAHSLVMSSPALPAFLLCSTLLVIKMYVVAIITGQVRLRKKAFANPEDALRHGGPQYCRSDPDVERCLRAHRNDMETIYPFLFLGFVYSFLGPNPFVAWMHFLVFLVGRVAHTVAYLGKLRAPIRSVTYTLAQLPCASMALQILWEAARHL
Type: biochemical
In short: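 Enzyme source was microsomes from COS-1 cells transiently expressing human mPGES-1, in sodium phosphate pH 7.2 with 2.5 mM GSH, 1 mM EDTA and 2% DMSO final. After a 15 min preincubation with compound at 4 °C, 1 μM PGH2 (final) reacted for 4 min at 4 °C.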

SMILES	IC50 [nM]
Cc1cc(=O)[nH]c(-c2c(C(F)(F)F)ccc(CNC(=O)[C@H]3C[C@H](OCc4cccc(Cl)c4)C3)c2F)n1 [Example 179, trans-3-[(3-chlorobenzyl)oxy]-N-[2-fluoro-3-(4-methyl-6-oxo-1,6-dihydropyrimidin-2-yl)-4-(trifluoromethyl)benzyl]cyclobutane-1-carboxamide]	< 1
Cc1cc(=O)[nH]c(-c2c(C(F)(F)F)ccc(CNC(=O)[C@H]3C[C@H](OCc4ccc(Cl)cc4)C3)c2F)n1 [Example 180, trans-3-[(4-chlorobenzyl)oxy]-N-[2-fluoro-3-(4-methyl-6-oxo-1,6-dihydropyrimidin-2-yl)-4-(trifluoromethyl)benzyl]cyclobutane-1-carboxamide]	1.7
Cc1cc(=O)[nH]c(-c2c(C(F)(F)F)ccc(CNC(=O)[C@H]3C[C@H](OCc4ccccc4C(F)(F)F)C3)c2F)n1 [Example 181, trans-N-[2-fluoro-3-(4-methyl-6-oxo-1,6-dihydropyrimidin-2-yl)-4-(trifluoromethyl)benzyl]-3-{[2-(trifluoromethyl)benzyl]oxy}cyclobutane-1-carboxamide]	19
Cc1cc(=O)[nH]c(-c2c(C(F)(F)F)ccc(CNC(=O)[C@H]3C[C@H](OCc4cccc(C(F)(F)F)c4)C3)c2F)n1 [Example 182, trans-N-[2-fluoro-3-(4-methyl-6-oxo-1,6-dihydropyrimidin-2-yl)-4-(trifluoromethyl)benzyl]-3-{[3-(trifluoromethyl)benzyl]oxy}cyclobutane-1-carboxamide]	12
Cc1cc(=O)[nH]c(-c2c(C(F)(F)F)ccc(CNC(=O)[C@H]3C[C@H](OCc4ccc(C(F)(F)F)cc4)C3)c2F)n1 [Example 183, trans-N-[2-fluoro-3-(4-methyl-6-oxo-1,6-dihydropyrimidin-2-yl)-4-(trifluoromethyl)benzyl]-3-{[4-(trifluoromethyl)benzyl]oxy}cyclobutane-1-carboxamide]	10
Cc1cc(=O)[nH]c(-c2c(C(F)(F)F)ccc(CNC(=O)[C@H]3C[C@H](OCc4ccc(F)cc4F)C3)c2F)n1 [Example 184, trans-3-[(2,4-difluorobenzyl)oxy]-N-[2-fluoro-3-(4-methyl-6-oxo-1,6-dihydropyrimidin-2-yl)-4-(trifluoromethyl)benzyl]cyclobutane-1-carboxamide]	< 1
Cc1cc(=O)[nH]c(-c2c(C(F)(F)F)ccc(CNC(=O)[C@H]3C[C@H](OCc4ccc(Cl)cc4F)C3)c2F)n1 [Example 185, trans-3-[(4-chloro-2-fluorobenzyl)oxy]-N-[2-fluoro-3-(4-methyl-6-oxo-1,6-dihydropyrimidin-2-yl)-4-(trifluoromethyl)benzyl]cyclobutane-1-carboxamide]	1.2
Cc1cc(=O)[nH]c(-c2c(C(F)(F)F)ccc(CNC(=O)[C@H]3C[C@H](OCc4ccc(F)c(F)c4)C3)c2F)n1 [Example 186, trans-3-[(3,4-difluorobenzyl)oxy]-N-[2-fluoro-3-(4-methyl-6-oxo-1,6-dihydropyrimidin-2-yl)-4-(trifluoromethyl)benzyl]cyclobutane-1-carboxamide]	3.2
Cc1cc(=O)[nH]c(-c2c(C(F)(F)F)ccc(CNC(=O)[C@H]3C[C@H](OCc4cc(F)cc(F)c4)C3)c2F)n1 [Example 187, trans-3-[(3,5-difluorobenzyl)oxy]-N-[2-fluoro-3-(4-methyl-6-oxo-1,6-dihydropyrimidin-2-yl)-4-(trifluoromethyl)benzyl]cyclobutane-1-carboxamide]	6.4
Cc1cc(=O)[nH]c(-c2c(C(F)(F)F)ccc(CNC(=O)[C@H]3C[C@H](OCc4cccc(F)c4)C3)c2F)n1 [Example 188, trans-N-[2-fluoro-3-(4-methyl-6-oxo-1,6-dihydropyrimidin-2-yl)-4-(trifluoromethyl)benzyl]-3-[(3-fluorobenzyl)oxy]cyclobutane-1-carboxamide]	10
Cc1cc(=O)[nH]c(-c2c(C(F)(F)F)ccc(CNC(=O)[C@H]3C[C@H](OCc4cccc(F)c4F)C3)c2F)n1 [Example 189, trans-3-[(2,3-difluorobenzyl)oxy]-N-[2-fluoro-3-(4-methyl-6-oxo-1,6-dihydropyrimidin-2-yl)-4-(trifluoromethyl)benzyl]cyclobutane-1-carboxamide]	13
Cc1cc(=O)[nH]c(-c2c(C(F)(F)F)ccc(CNC(=O)[C@H]3C[C@H](OCc4ccc(F)cc4Cl)C3)c2F)n1 [Example 190, trans-3-[(2-chloro-4-fluorobenzyl)oxy]-N-[2-fluoro-3-(4-methyl-6-oxo-1,6-dihydropyrimidin-2-yl)-4-(trifluoromethyl)benzyl]cyclobutane-1-carboxamide]	< 1
Cc1cc(=O)[nH]c(-c2c(C(F)(F)F)ccc(CNC(=O)[C@H]3C[C@H](OCc4cccc(Cl)c4F)C3)c2F)n1 [Example 191, trans-3-[(3-chloro-2-fluorobenzyl)oxy]-N-[2-fluoro-3-(4-methyl-6-oxo-1,6-dihydropyrimidin-2-yl)-4-(trifluoromethyl)benzyl]cyclobutane-1-carboxamide]	< 1
Cc1cc(=O)[nH]c(-c2c(C(F)(F)F)ccc(CNC(=O)[C@H]3C[C@H](OCc4cc(Cl)ccc4F)C3)c2F)n1 [Example 192, trans-3-[(5-chloro-2-fluorobenzyl)oxy]-N-[2-fluoro-3-(4-methyl-6-oxo-1,6-dihydropyrimidin-2-yl)-4-(trifluoromethyl)benzyl]cyclobutane-1-carboxamide]	< 1
Cc1cc(=O)[nH]c(-c2c(C(F)(F)F)ccc(CNC(=O)[C@H]3C[C@H](OCc4ccc(F)c(Cl)c4)C3)c2F)n1 [Example 193, trans-3-[(3-chloro-4-fluorobenzyl)oxy]-N-[2-fluoro-3-(4-methyl-6-oxo-1,6-dihydropyrimidin-2-yl)-4-(trifluoromethyl)benzyl]cyclobutane-1-carboxamide]	< 1
Cc1cc(=O)[nH]c(-c2c(C(F)(F)F)ccc(CNC(=O)[C@H]3C[C@H](OCc4cc(F)cc(Cl)c4)C3)c2F)n1 [Example 194, trans-3-[(3-chloro-5-fluorobenzyl)oxy]-N-[2-fluoro-3-(4-methyl-6-oxo-1,6-dihydropyrimidin-2-yl)-4-(trifluoromethyl)benzyl]cyclobutane-1-carboxamide]	3.6

The remaining lines, values ahead:

IC50 [nM]	SMILES
< 1	CCc1cc(=O)[nH]c(-c2c(C(F)(F)F)ccc(CNC(=O)[C@H]3C[C@H](OCc4ccccc4Cl)C3)c2F)n1 [Example 195, trans-3-[(2-chlorobenzyl)oxy]-N-[3-(4-ethyl-6-oxo-1,6-dihydropyrimidin-2-yl)-2-fluoro-4-(trifluoromethyl)benzyl]cyclobutane-1-carboxamide]
< 1	CCc1cc(=O)[nH]c(-c2c(C(F)(F)F)ccc(CNC(=O)[C@H]3C[C@H](OCc4cccc(Cl)c4)C3)c2F)n1 [Example 196, trans-3-[(3-chlorobenzyl)oxy]-N-[3-(4-ethyl-6-oxo-1,6-dihydropyrimidin-2-yl)-2-fluoro-4-(trifluoromethyl)benzyl]cyclobutane-1-carboxamide]
3.7	CCc1cc(=O)[nH]c(-c2c(C(F)(F)F)ccc(CNC(=O)[C@H]3C[C@H](OCc4ccc(Cl)cc4)C3)c2F)n1 [Example 197, trans-3-[(4-chlorobenzyl)oxy]-N-[3-(4-ethyl-6-oxo-1,6-dihydropyrimidin-2-yl)-2-fluoro-4-(trifluoromethyl)benzyl]cyclobutane-1-carboxamide]
1.4	CCc1cc(=O)[nH]c(-c2c(C(F)(F)F)ccc(CNC(=O)[C@H]3C[C@H](OCc4ccccc4C(F)(F)F)C3)c2F)n1 [Example 198, trans-N-[3-(4-ethyl-6-oxo-1,6-dihydropyrimidin-2-yl)-2-fluoro-4-(trifluoromethyl)benzyl]-3-{[2-(trifluoromethyl)benzyl]oxy}cyclobutane-1-carboxamide]
1.1	CCc1cc(=O)[nH]c(-c2c(C(F)(F)F)ccc(CNC(=O)[C@H]3C[C@H](OCc4cccc(C(F)(F)F)c4)C3)c2F)n1 [Example 199, trans-N-[3-(4-ethyl-6-oxo-1,6-dihydropyrimidin-2-yl)-2-fluoro-4-(trifluoromethyl)benzyl]-3-{[3-(trifluoromethyl)benzyl]oxy}cyclobutane-1-carboxamide]
6.5	CCc1cc(=O)[nH]c(-c2c(C(F)(F)F)ccc(CNC(=O)[C@H]3C[C@H](OCc4ccc(C(F)(F)F)cc4)C3)c2F)n1 [Example 200, trans-N-[3-(4-ethyl-6-oxo-1,6-dihydropyrimidin-2-yl)-2-fluoro-4-(trifluoromethyl)benzyl]-3-{[4-(trifluoromethyl)benzyl]oxy}cyclobutane-1-carboxamide]
< 1	CCc1cc(=O)[nH]c(-c2c(C(F)(F)F)ccc(CNC(=O)[C@H]3C[C@H](OCc4ccc(F)cc4F)C3)c2F)n1 [Example 201, trans-3-[(2,4-difluorobenzyl)oxy]-N-[3-(4-ethyl-6-oxo-1,6-dihydropyrimidin-2-yl)-2-fluoro-4-(trifluoromethyl)benzyl]cyclobutane-1-carboxamide]
< 1	CCc1cc(=O)[nH]c(-c2c(C(F)(F)F)ccc(CNC(=O)[C@H]3C[C@H](OCc4ccc(Cl)cc4F)C3)c2F)n1 [Example 202, trans-3-[(4-chloro-2-fluorobenzyl)oxy]-N-[3-(4-ethyl-6-oxo-1,6-dihydropyrimidin-2-yl)-2-fluoro-4-(trifluoromethyl)benzyl]cyclobutane-1-carboxamide]
< 1	CCc1cc(=O)[nH]c(-c2c(C(F)(F)F)ccc(CNC(=O)[C@H]3C[C@H](OCc4ccc(F)c(F)c4)C3)c2F)n1 [Example 203, trans-3-[(3,4-difluorobenzyl)oxy]-N-[3-(4-ethyl-6-oxo-1,6-dihydropyrimidin-2-yl)-2-fluoro-4-(trifluoromethyl)benzyl]cyclobutane-1-carboxamide]

Source: US20250340557A1, “PYRIMIDINE DERIVATIVE” (ASKA PHARMACEUTICAL CO., LTD., priority 2022, published 2025)
